Assay results reported in patent publication US6737383B1, “Herbicidal oxadiazolidines” (priority 1999, dated 2004).

Experiments:
[1] = tested on: bedstraw; experiment: Test B pre/postemergence bedstraw; assay type: in vivo, Galium aparine
In short: (§1)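 Response is a visual 0-to-10 score relative to untreated plants, where 0 means no effect and 10 means complete control, taken twelve to sixteen days after application. Treatments went onto soil at planting and onto foliage of 1- to 4-leaf plants, using a surfactant-containing non-phytotoxic solvent.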

[2] = tested on: blackgrass; experiment: Test B pre/postemergence blackgrass; assay type: in vivo, Alopecurus myosuroides
In short: as §1

[3] = tested on: surinam grass; experiment: Test B pre/postemergence surinam grass; assay type: in vivo, Brachiaria decumbens
In short: as §1

[4] = tested on: corn; experiment: Test B pre/postemergence corn; assay type: in vivo, Zea mays
In short: as §1

[5] = tested on: crabgrass; experiment: Test B pre/postemergence crabgrass; assay type: in vivo, Digitaria sanguinalis
In short: as §1

[6] = tested on: giant foxtail; experiment: Test B pre/postemergence giant foxtail; assay type: in vivo, Setaria faberii
In short: as §1

[7] = tested on: morningglory; experiment: Test B pre/postemergence morningglory; assay type: in vivo, Ipomoea hederacea
In short: as §1

[8] = tested on: pigweed; experiment: Test B pre/postemergence pigweed; assay type: in vivo, Amaranthus retroflexus
In short: as §1

[9] = tested on: soybean; experiment: Test B pre/postemergence soybean; assay type: in vivo, Glycine max
In short: as §1

[10] = tested on: velvetleaf; experiment: Test B pre/postemergence velvetleaf; assay type: in vivo, Abutilon theophrasti
In short: as §1

[11] = tested on: wheat; experiment: Test B pre/postemergence wheat; assay type: in vivo, Triticum aestivum
In short: as §1

[12] = tested on: wild oat; experiment: Test B pre/postemergence wild oat; assay type: in vivo, Avena fatua
In short: as §1

[13] = tested on: purple nutsedge; experiment: Test B pre/postemergence purple nutsedge; assay type: in vivo, Cyperus rotundus
In short: as §1

[14] = tested on: rice; experiment: Test B flood test rice; assay type: in vivo, Oryza sativa
In short: (§2)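 Plants were grown to the 2-leaf stage before treatment with test chemical, then held in a greenhouse for twelve to sixteen days. Injury was visually rated against untreated controls on a 0–10 scale, where 0 is no effect and 10 is complete control.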

[15] = tested on: smallflower flatsedge; experiment: Test B flood test smallflower flatsedge; assay type: in vivo, Cyperus difformis
In short: as §2

[16] = tested on: duck salad; experiment: Test B flood test duck salad; assay type: in vivo, Heteranthera limosa
In short: as §2

[17] = Postemergence, Rate 62 g/ha, scale 0 to 10, 0 is no effect, 10 is complete control
[18] = Postemergence, Rate 250 g/ha, scale 0 to 10, 0 no effect, 10 complete control
[19] = Preemergence, Rate 62 g/ha, scale 0 to 10 (0 no effect, 10 complete control)
[20] = Preemergence, Rate 125 g/ha, scale 0 to 10 (0 no effect, 10 complete control)
[21] = Preemergence, Rate 250 g/ha, scale of 0 to 10 where 0 is no effect and 10 is complete control
[22] = Preemergence, Rate 500 g/ha, scale 0 (no effect) to 10 (complete control)
[23] = Rate 125 g/ha, Postemergence, scale 0 to 10, 0 no effect, 10 complete control
[24] = Rate 500 g/ha, Postemergence, scale 0 to 10, 0 no effect, 10 complete control
[25] = Rate 125 g/ha, Postemergence section (flood test species), scale 0 to 10, 0 no effect, 10 complete control
[26] = Rate 500 g/ha, listed under Postemergence (flood test species), scale 0 to 10, 0 no effect, 10 complete control
[27] = flood test, listed under Postemergence, Rate 250 g/ha, scale 0 to 10, 0 no effect, 10 complete control

Cc1ccccc1-n1c(=O)on(C(=O)N(c2cc(F)cc(F)c2)C(C)C)c1=O [Compound 67]
10: Redroot pigweed plant response rating [8, 22]
4: Plant response rating, Crabgrass [5, 20] | Plant response rating, Crabgrass [5, 21] | Redroot pigweed plant response rating [8, 19] | Plant response rating, Redroot pigweed [8, 20] | Redroot pigweed plant response rating [8, 24]
2: Plant response rating, Blackgrass [2, 21] | Blackgrass plant response rating [2, 22] | B. signalgrass plant response rating [3, 22] | Crabgrass plant response rating [5, 19] | Morningglory plant response rating [7, 18] | Morningglory plant response rating [7, 23] | Wild oats plant response rating [12, 22]
7: Bedstraw plant response rating [1, 18] | Crabgrass plant response rating [5, 22] | Plant response rating, Giant foxtail [6, 20]
0: Bedstraw plant response rating [1, 17] | Bedstraw plant response rating [1, 19] | Plant response rating, Bedstraw [1, 20] | Plant response rating, Bedstraw [1, 21] | Bedstraw plant response rating [1, 22] | Blackgrass plant response rating [2, 17] | Blackgrass plant response rating [2, 18] | Blackgrass plant response rating [2, 19] | Plant response rating, Blackgrass [2, 20] | Blackgrass plant response rating [2, 23] | Blackgrass plant response rating [2, 24] | B. signalgrass plant response rating [3, 17] | B. signalgrass plant response rating [3, 18] | B. signalgrass plant response rating [3, 19] | Plant response rating, B. signalgrass [3, 20] | Plant response rating, B. signalgrass [3, 21] | B. signalgrass plant response rating [3, 23] | B. signalgrass plant response rating ([3]; Rate 500 g/ha, Postemergence, scale of 0 to 10 where 0 is no effect and 10 is complete control) | Corn plant response rating [4, 17] | Corn plant response rating [4, 18] | Corn plant response rating [4, 19] | Plant response rating, Corn [4, 20] | Plant response rating, Corn [4, 21] | Corn plant response rating [4, 22] | Corn plant response rating [4, 23] | Corn plant response rating [4, 24] | Crabgrass plant response rating [5, 17] | Crabgrass plant response rating [5, 18] | Crabgrass plant response rating [5, 23] | Crabgrass plant response rating [5, 24] | Giant foxtail plant response rating [6, 17] | Giant foxtail plant response rating [6, 18] | Giant foxtail plant response rating [6, 23] | Giant foxtail plant response rating [6, 24] | Morningglory plant response rating [7, 17] | Morningglory plant response rating [7, 19] | Plant response rating, Morningglory [7, 20] | Plant response rating, Morningglory [7, 21] | Morningglory plant response rating [7, 22] | Redroot pigweed plant response rating [8, 17] | Redroot pigweed plant response rating [8, 18] | Redroot pigweed plant response rating [8, 23] | Soybean plant response rating [9, 17] | Soybean plant response rating [9, 19] | Plant response rating, Soybean [9, 20] | Plant response rating, Soybean [9, 21] | Soybean plant response rating [9, 22] | Velvetleaf plant response rating [10, 17] | Velvetleaf plant response rating [10, 18] | Velvetleaf plant response rating [10, 19] | Plant response rating, Velvetleaf [10, 20] | Plant response rating, Velvetleaf [10, 21] | Velvetleaf plant response rating [10, 22] | Velvetleaf plant response rating [10, 23] | Velvetleaf plant response rating [10, 24] | Wheat plant response rating [11, 17] | Wheat plant response rating [11, 18] | Wheat plant response rating [11, 19] | Plant response rating, Wheat [11, 20] | Plant response rating, Wheat [11, 21] | Wheat plant response rating [11, 22] | Wheat plant response rating [11, 23] | Wheat plant response rating [11, 24] | Wild oats plant response rating [12, 17] | Wild oats plant response rating [12, 18] | Wild oats plant response rating [12, 19] | Plant response rating, Wild oats [12, 20] | Plant response rating, Wild oats [12, 21] | Wild oats plant response rating [12, 23] | Wild oats plant response rating [12, 24] | Nutsedge plant response rating [13, 17] | Nutsedge plant response rating [13, 18] | Nutsedge plant response rating [13, 19] | Plant response rating, Nutsedge [13, 20] | Plant response rating, Nutsedge [13, 21] | Nutsedge plant response rating [13, 22] | Nutsedge plant response rating [13, 23] | Nutsedge plant response rating [13, 24] | Rice plant response rating [14, 17] | Rice plant response rating [14, 25] | Rice plant response rating [14, 26] | Rice plant response rating [14, 27] | S. Flatsedge plant response rating [15, 17] | S. Flatsedge plant response rating [15, 25] | S. Flatsedge plant response rating [15, 26] | S. Flatsedge plant response rating [15, 27] | Ducksalad plant response rating [16, 17] | Ducksalad plant response rating [16, 25] | Ducksalad plant response rating [16, 26] | Ducksalad plant response rating [16, 27]
5: Bedstraw plant response rating [1, 23]
3: Giant foxtail plant response rating [6, 19]
9: Plant response rating, Redroot pigweed [8, 21]
6: Morningglory plant response rating [7, 24]
1: Soybean plant response rating [9, 18] | Soybean plant response rating [9, 23] | Soybean plant response rating [9, 24]
8: Bedstraw plant response rating [1, 24] | Plant response rating, Giant foxtail [6, 21] | Giant foxtail plant response rating [6, 22]
